# Laboratory results published in patent US4740501A (priority 1985, dated 1988).
# Test system: C-type virus
# Assay: Monitoring of treated MJY-alpha cells for induction of C-type virus
# Type: cell-based
# Settings: 0.5 to 48 hour pulse or 8 months culture in the tripeptide
# Excerpt: The possible multifocal action of this antitumor tripeptide was a concern during examination of this compound. Since virus particles obtained by induction are infectious and oncogenic, PTT.119-treated cells were monitored for the presence of C-type virus. […] In addition, no diminution of the inhibitory effect of PTT.119 or enhancement of B-type retrovirus production was observed under these conditions.
compound,measurement,value
"CCOC(=O)[C@H](CCSC)NC(=O)[C@H](Cc1cccc(N(CCCl)CCCl)c1)NC(=O)[C@@H](N)Cc1ccc(F)cc1.Cl [PTT.119, 3-(p-fluorophenyl)-L-alanyl-3-[m-bis(2-chloroethyl)aminophenyl]-L-alanyl-L-methionine ethyl ester hydrochloride]",endogenous (C-type) virus production,no detection of any endogenous virus production
